Assay results from patent US20160376374A1, “ANTIBODIES TO CEACAM1 AND KINASE INHIBITORS FOR TREATING BRAF-MUTATED CELLS” (TEL HASHOMER MEDICAL RESEARCH INFRASTRUCTURE AND SERVICES …, priority 2014, published 2016).

Columns and labels:
[1] = system: CEACAM1 expression on B-Raf W.T. cells (076mel); assay: CEACAM1 expression on cells by FACS, W.T. B-Raf cells; format: cell-based, human; settings: 076mel (W.T. B-Raf); 0.1 μM and 1 μM, 2 to 48 hours; FIG. 3A
[2] = system: B-Raf V600E cell samples (526mel, 624mel) with cytotoxic T cells; assay: Killing of melanoma cells by cytotoxic T cells, LDH release; format: cell-based; settings: pre-incubated with 1 μM, overnight, effector-target ratio 5:1, FIG. 7
Experimental: Melanoma cells were pre-incubated with 1 μM vemurafenib and then co-incubated overnight with HLA-A2 matched antigen-matched T cells in effector-target ratio of 5:1. Cell killing was determined by LDH release.

[3] = system: B-Raf V600E 526mel melanoma cells; assay: Determined IC50 of vemurafenib used to generate resistant melanoma cells; format: cell-based
Experimental: B-Raf V600E 526mel melanoma cells were cultured in the presence of 1 μM vemurafenib. Cultivation was performed in RPMI 1640 supplemented with 1 mM Na-Pyruvate, 1 mM Pen-Strep, 1 mM L-Glutamine, 1 mM non-essential amino acids, and 10% heat inactivated fetal calf serum. […] Cells were then tested for CEACAM1 expression using MRG1 (murine antibody to human CEACAM1) in flow cytometry as described above. Total RNA was extracted with TRIZOL and cDNA was generated with a reverse transcriptase, according to routine protocols.

[4] = system: B-Raf W.T. (076mel, 013mel) cells; assay: MAPK activity by immunoblotting for phosphorylated ERK1/2, B-Raf W.T. cells; format: cell-based; settings: B-Raf W.T. cells 076mel, 1 μM, 48 hours, FIG. 2
Experimental: (§1) MAPK activity was measured in B-Raf V600E (624mel, sk-mel-5) and B-Raf W.T. (076mel, 013mel) cell samples by immunoblotting for phosphorylated ERK1/2 (pERK, Thr202/Tyr204), total ERK1/2 and actin after 48 hours of exposure to vemurafenib (1 μM).

[5] = system: CEACAM1 expression on B-Raf V600E cells (526mel, 624mel); assay: CEACAM1 expression on cells by FACS, mutated B-Raf cells; format: cell-based, human
Experimental: Total RNA was extracted from 1.0*10^6 melanoma cells with TRIZOL. cDNA was generated with standard reverse transcriptase. Real time PCR was performed with CEACAM1-specific primers and compared to glyceraldehyde 3-phosphate dehydrogenase (GAPDH) tested as a control. Cycle threshold (Ct) values above 36 were considered as minimal or no expression. B-Raf genotype was determined by direct sequencing of amplified fragment from genomic DNA that contains the codon for position 600 of the B-Raf protein. Statistical analysis of the correlation between CEACAM1 expression (negative or positive) with the mutation status (positive=V600E, or negative=wild type) was performed by Fisher exact test.
Cells were then tested for CEACAM1 expression using MRG1 (murine antibody to human CEACAM1) in flow cytometry as described above. Total RNA was extracted with TRIZOL and cDNA was generated with a reverse transcriptase, according to routine protocols.

[6] = system: B-Raf V600E (624mel, sk-mel-5) cells; assay: MAPK activity by immunoblotting for phosphorylated ERK1/2, B-Raf V600E cells; format: cell-based
Experimental: as §1
(§2) MAPK activity was measured in vemurafenib-sensitive and vemurafenib-resistant B-Raf V600E (624mel) cell samples by immunoblotting for phosphorylated ERK1/2 (pERK, Thr202/Tyr204), total ERK1/2 and actin after 24 hours of exposure to 160 nM vemurafenib.

[7] = system: vemurafenib-resistant B-Raf V600E (624mel) cells; assay: MAPK activity by immunoblotting for phosphorylated ERK1/2, vemurafenib-resistant cells; format: cell-based; settings: vemurafenib-resistant 624mel; 160 nM, 24 hours; FIG. 4B
Experimental: Two vemurafenib-sensitive B-Raf V600E cell samples (526mel, 624mel) and vemurafenib-resistant cell lines derived therefrom were incubated for 2 days with 1 μM vemurafenib. Cells were then analyzed for CEACAM1 protein expression by FACS as described above. Vemurafenib-resistant cell lines were generated by gradual increase of the inhibitor's concentration in culture, up to 0.32 μM.
as §2

[8] = system: CEACAM1 expression on sk-mel-2 cells (W.T. B-Raf, mutated N-Ras); assay: CEACAM1 expression on cells by FACS, W.T. B-Raf / mutated N-Ras cells; settings: sk-mel-2 (W.T. B-Raf, mutated N-Ras); 1 μM; FIG. 3C
Experimental: At each time point, CEACAM1 expression on the cells was determined by FACS. Volume equivalents of DMSO (vehicle) were used as control.

In the case of `CCCS(=O)(=O)Nc1ccc(F)c(C(=O)c2c[nH]c3ncc(-c4ccc(Cl)cc4)cc23)c1F` [vemurafenib, N-(3-{[5-(4-chlorophenyl)-1H-pyrrolo[2,3-b]pyridin-3-yl]carbonyl}-2,4-difluorophenyl)propane-1-sulfonamide], the “CEACAM1 expression levels on cells” value [1] is reported as “did not have any effect”, the “sensitization of melanoma cells to cytotoxic T cells (cell killing by LDH release)” value [2] is reported as “significantly sensitizes melanoma cells to cytotoxic T cells” and the IC50 [3] is reported as 0.64 nM. The “phosphorylation of ERK1/2 (pERK, Thr202/Tyr204)” value [4] was “no substantial effect”, the “CEACAM1 expression levels on cells” value ([5]; 526mel, 624mel (mutated B-Raf), 0.1 μM and 1 μM, 2 to 48 hours, FIG. 3A-B) was “dose-dependent effect” and the CEACAM1 expression ([5]; B-Raf V600E 526mel melanoma cells, 1 μM, flow cytometry with MRG1, FIG. 5) was “down regulates CEACAM1 expression”. For the same compound, the “phosphorylation of ERK1/2 (pERK, Thr202/Tyr204)” value ([6]; B-Raf V600E cells 624mel, sk-mel-5, 1 μM, 48 hours, FIG. 2) was “almost completely abolishes the phosphorylation of ERK1/2”, the “phosphorylation of ERK1/2 (pERK, Thr202/Tyr204)” value ([6]; vemurafenib-sensitive 624mel, 160 nM, 24 hours, FIG. 4B) was “almost completely abolishes the phosphorylation of ERK1/2” and the “MAPK activity (phosphorylated ERK1/2)” value [7] was “practically uninterrupted”. The “CEACAM1 expression levels on cells” value [8] was “no effect”.
